Tested on: FL-DCs stimulated with HZ
Test: Chloroquine effect on HZ-induced cytokine production by FL-DCs
Type: cell-based, mouse
Conditions: 30 μM HZ, CQ 10 μM, 24 hours; P<0.05 HZ vs. HZ+CQ
Description: Single cell suspensions of spleen cells (5×10^5 cells/well) were cultured in complete RPMI 1640 medium supplemented with 10% FCS for 48 hours. F1t3 ligand-induced bone marrow-derived DCs (FL-DCs) (1×10^5 cells/well) were generated by culturing bone marrow cells with F1t3 ligand (100 ng/ml; Pepro Tech) for eight to nine days in DMEM medium containing 10% FCS. The cells were stimulated in the presence of the indicated stimuli and supernatants were collected for cytokine ELISA.
Murine TNF-α, IL-12p40, MCP-1, IL-6 (R & D Systems), and IFNα (PBL Bio. Lab) were measured either from the supernatants or the sera by ELISA according to the manufacturer's instructions.
The anti-malarial formulation, chloroquine (CQ), has been reported to inhibit proinflammatory responses during malaria infection in addition to endosome/lysosome maturations and malarial hemozoin crystal formations, whereas the exact mechanism of anti-malarial effects of CQ is still under debate (Int. J. Parasitol. 32: 1645-1653, 2002; Life Sci. 74: 1957-1972, 2004). […] To examine the effect of CQ to HZ-induced proinflammatory responses, FL-DCs were stimulated with HZ in the presence of CQ. […]
(a) To detect DNA contamination, HZ was run on an agarose gel and stained with ethidium bromide. […] Then the supernatants were collected and measured for TNFα or IL-12p40 by ELISA. […] “n.d.” means “not detected”.

CCN(CC)CCCC(C)Nc1ccnc2cc(Cl)ccc12 (stereo not shown) [CQ, chloroquine]
HZ-induced TNFα and IL-12p40 productions by FL-DCs in the presence of CQ: diminished

From patent publication US10172927B2, “Detection/measurement of malaria infection disease utilizing natural immunity by hemozoin induction, screening of preventative or therapeutic medicine for malaria infection disease, and regulation of natural immunity induction” (Osaka University, priority 2004, dated 2019)
